Consider one compound from ChEMBL document CHEMBL4715854, “Discovery of Roblitinib (FGF401) as a Reversible-Covalent Inhibitor of the Kinase Activity of Fibroblast Growth Factor Receptor 4” (J Med Chem, 2020).

Series [1] in a line: Half-life in Crl:CD (SD) rat at 1 mg/kg, iv or 3 mg/kg, po measured upto 24 hrs by LC-MS/MS analysis. It is filed as ADME, organism-based. The conditions noted are these: in vivo.
Series [2] in a line: AUC in Crl:CD (SD) rat at 1 mg/kg, iv formulated in PEG200/NMP measured upto 24 hrs by LC-MS/MS analysis. It is filed as ADME, organism-based. Details: route intravenous, dose 1 mg/kg, time <=24. The conditions noted are these: in vivo.
Series [3] in a line: Volume of distribution at steady state in Crl:CD (SD) rat at 1 mg/kg, iv or 3 mg/kg, po measured upto 24 hrs by LC-MS/MS analysis. In kind it is ADME, organism-based. The note with it: in vivo, read-out: Vdss.
Series [4] can be described thus: Clearance in Crl:CD (SD) rat at 1 mg/kg, iv or 3 mg/kg, po measured up to 24 hrs by LC-MS/MS analysis. The note with it: in vivo. In kind it is ADME, organism-based.
A short description of series [5]: Permeability of the compound in human Caco-2 cells assessed as compound recovery at 10 uM measured after 2 hrs by LC/MS/MS analysis. It is filed as ADME, cell-based. The note with it: read-out: Drug recovery.
Series [6] can be described thus: Drug metabolism in rat liver microsome assessed as reduction of aldehyde group at 10 mM measured after 15 mins in presence of NADPH by LC-MS analysis. In kind it is ADME. The conditions noted are these: microsomes, 10000 µM.
The nature of series [7]: Drug metabolism in human liver microsome assessed as reduction of aldehyde group at 10 mM measured after 15 mins in presence of NADPH by LC-MS analysis. In kind it is ADME. The conditions noted are these: microsomes, 10000 µM.
Series [8] can be described thus: Lipophilicity, log D of the compound in 1-octanol at pH 7.4 by potentiometric titration method. It is filed as physicochemical.
The nature of series [9]: Drug metabolism in rat feces assessed as reduction of aldehyde group measured after 20 hrs incubated under anaerobic condition measured by LC-MS analysis. In kind it is ADME, tissue-based.
A short description of series [10]: Drug metabolism in rat blood assessed as reduction of aldehyde group measured at 1 uM within 1 hr by LC-MS/MS analysis. The note with it: read-out: Drug metabolism. In kind it is ADME, tissue-based.
Series [11] is described as follows: Oral bioavailability in Crl:CD (SD) rat at 3 mg/kg measured upto 24 hrs by LC-MS/MS analysis. In kind it is ADME, organism-based. The note with it: in vivo, 3 mg/kg, 24 h.
Series [12] in a line: AUC in Crl:CD (SD) rat at 3 mg/kg, po measured upto 24 hrs by LC-MS/MS analysis. It is filed as ADME, organism-based. Details: route oral, dose 3 mg/kg, time <=24. The note with it: in vivo.
The nature of series [13]: Metabolic stability in rat liver microsomes assessed as parent compound remaining incubated for 60 mins by HPLC/MS analysis. In kind it is ADME, Microsome. The conditions noted are these: read-out: Stabilty.
The nature of series [14]: Drug metabolism in rat liver microsomes assessed as glucuronidation by measuring (2S,3S,4S,5R,6R)-6-((8-(5-cyanopyridin-2-ylcarbamoyl)-5,6,7,8-tetrahydro-1,8-naphthyridin-2-yl)methoxy)-3,4,5-trihydroxytetrahydro-2H-pyran-2-carboxylic acid metabolite formation incubated for 60 mins by HPLC/MS analysis. The note with it: 1 h. It is filed as ADME, Microsome.
A short description of series [15]: Drug metabolism in rat liver microsomes assessed as C-hydroxylation of THN mediated M3 metabolite formation incubated for 60 mins by HPLC/MS analysis. The conditions noted are these: 1 h. It is filed as ADME, Microsome.
Series [16] in a line: Drug metabolism in rat liver microsomes assessed as C-hydroxylation of THN mediated M2 metabolite formation incubated for 60 mins by HPLC/MS analysis. It is filed as ADME, Microsome. The note with it: 1 h.
The nature of series [17]: Metabolic stability in rat plasma assessed as parent compound remaining at 1 uM incubated for 60 mins by HPLC/MS analysis. In kind it is ADME, cell-free. The conditions noted are these: read-out: Stabilty.
A short description of series [18]: Metabolic stability in rat blood at 1 uM assessed as parent compound remaining incubated for 60 mins by HPLC/MS analysis. It is filed as ADME, tissue-based. The note with it: read-out: Stabilty.
Series [19] is described as follows: Metabolic stability in rat liver S9 fraction at 1 uM assessed as parent compound remaining incubated for 60 mins by HPLC/MS analysis. It is filed as ADME, subcellular. The conditions noted are these: read-out: Stabilty.
The nature of series [20]: Metabolic stability in rat liver S9 fraction assessed as parent compound remaining at 1 uM incubated for 60 mins in presence of NADPH by HPLC/MS analysis. In kind it is ADME, subcellular. The note with it: read-out: Stabilty.

As to `N#Cc1ccc(NC(=O)N2CCCc3ccc(C=O)nc32)nc1`, the half-life in series [1] was 1.3 h. Further, the AUC in [2] turned out to be 1.232 µM·h; in series [12], 0.054 µM·h. In addition, the Vd in series [3] is 3.4 L/kg. Further, in series [4], the clearance turned out to be 44 mL/min/kg. The recovery at 2 h, 10 µM in series [5] was less than 10%. Besides, the Drug metabolism result in series [6], in series [7], in series [9], in series [14], in [15] and in [16] was “Metabolite_Detected” throughout. The compound further returned a logD in series [8] of 2.9. Also, the metabolised at 1 h, 1 µM in series [10] was more than 50%. The F in [11] is recorded as 4%. In addition, the remaining at 1 h in series [13] came out at 7%. In addition, the remaining at 1 h, 1 µM in series [17] worked out at 100%; in series [18], 22%; in [19], 61%; in series [20] it was 1%.
